Reference: PubChem BioAssay (NCI)
Values joined by “and” are separate entries in the source; they are usually repeats but may differ in a detail not shown here. Equal entries are not always repeated.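 Protocol summary: plate cells (96-well), add compound at 5 concentrations, incubate 48 h, interpolate endpoints linearly. GI50: concentration for 50% inhibition of growth. TGI is the concentration that stops growth completely.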

Key:
Test in all cases: growth of human tumour cells (NCI), 48 h
786-0 renal = tested on: 786-0 renal
NCI-H460 lung = tested on: NCI-H460 lung
A549 NSCLC = tested on: A549 NSCLC
DU-145 prostate = tested on: DU-145 prostate
SNB-75 CNS = tested on: SNB-75 CNS
U251 CNS = tested on: U251 CNS
SNB-19 CNS = tested on: SNB-19 CNS
RPMI-8226 leukemia = tested on: RPMI-8226 leukemia
T-47D breast = tested on: T-47D breast
MOLT-4 leukemia = tested on: MOLT-4 leukemia

Row | Compound | GI50 (786-0 renal) | TGI (786-0 renal) | GI50 (NCI-H460 lung) | TGI (NCI-H460 lung) | GI50 (A549 NSCLC) | TGI (A549 NSCLC) | GI50 (DU-145 prostate) | TGI (DU-145 prostate) | GI50 (SNB-75 CNS) | TGI (SNB-75 CNS) | GI50 (U251 CNS) | TGI (U251 CNS) | GI50 (SNB-19 CNS) | TGI (SNB-19 CNS) | GI50 (RPMI-8226 leukemia) | TGI (RPMI-8226 leukemia) | GI50 (T-47D breast) | TGI (T-47D breast) | GI50 (MOLT-4 leukemia) | TGI (MOLT-4 leukemia)
1 | Cn1cc(-c2nonc2-c2c[nH]c3ccccc23)c2ccccc21 | 0.611 µM | 7.94 µM | 0.375 µM | 7.78 µM | 0.728 µM | 22.1 µM | 0.511 µM | 12.7 µM | 0.188 µM | 0.761 µM | 0.443 µM | 18.6 µM | 0.385 µM | 10.9 µM | 0.369 µM | 5.96 µM | 0.464 µM | 28.5 µM | 0.499 µM | 14.8 µM
2 | CCSc1nnc2c(-c3ccccc3)n[nH]c2n1 |  | > 100 µM |  | > 100 µM |  | > 100 µM |  | > 100 µM |  | > 100 µM |  | > 100 µM |  | > 100 µM |  | > 100 µM |  | > 100 µM |  | > 100 µM
3 | COc1ccc(C#Cc2ccccc2C#CCCCCO)cc1 | 22.8 µM | 45.9 µM | 19.4 µM | 39.9 µM | 18.2 µM | 33.7 µM | 21.3 µM | 52.6 µM | 18.4 µM | 38.9 µM | 12.7 µM | 25.3 µM | 21.4 µM | 36.9 µM | 27.3 µM | 72.7 µM | 22 µM | 43.8 µM | 18.3 µM | 39.2 µM
4 | COC(=O)[C@@H](NC(=O)NC(=O)NC(=O)CI)C(C)C | 11.4 µM | 23.5 µM | 18.9 µM | 38.2 µM | 22.4 µM | 41.5 µM | 16.4 µM | 29.9 µM | 13.2 µM | 26.8 µM | 17.3 µM | 31.1 µM | 18.8 µM | 37.7 µM | 4.83 µM | 26.1 µM | 6 µM | 34.5 µM | 2.58 µM | 7.05 µM
5 | CN1CCN(c2ccc(C(=O)Nc3n[nH]c4ccc(Cc5cc(F)cc(F)c5)cc34)c(NC3CCOCC3)c2)CC1 | 1.41 µM and 1.31 µM | 2.99 µM and 2.62 µM | 2.37 µM and 1.57 µM | 9.27 µM and 3.09 µM | 2.5 µM and 1.3 µM | > 10 µM and 2.72 µM | 4.22 µM and 1.65 µM | > 10 µM and 3.04 µM | 1.05 µM | 2.36 µM | 1.64 µM and 1.54 µM | 3.29 µM and 2.95 µM | 4.24 µM and 1.79 µM | > 10 µM and 3.53 µM | 2.3 µM and 1.86 µM | 7.02 µM and 4.39 µM | 1.99 µM | > 10 µM | 2.18 µM and 1.82 µM | 7.18 µM and 4.42 µM
6 | O=C(c1ccccc1)c1c(NCC(O)CN2CCCC2)n(Cc2ccccc2)c(=O)n(Cc2ccccc2)c1=O (stereo unspecified) | 18.9 µM | 35.5 µM | 19.8 µM | 38.9 µM | 32.3 µM | > 100 µM | 17.8 µM | 34.7 µM | 16.9 µM | 47.3 µM | 16.1 µM | 29.6 µM | 63.4 µM | > 100 µM | 19.3 µM | 48.4 µM | 21.3 µM | 45.7 µM | 19.7 µM | > 100 µM
7 | O=[N+]([O-])c1ccc(Nc2ccccc2-c2ccccc2)c2nonc12 | 12.6 µM | 32.6 µM | 13.1 µM | 42.3 µM | 16.7 µM | > 86.8 µM | 28.2 µM | > 100 µM | 13.6 µM | 36.6 µM | 13.4 µM | 29.3 µM | 14.5 µM | 32.3 µM | 6.91 µM | > 100 µM | 10.5 µM | > 100 µM | 20 µM | 88.2 µM
8 | Nc1ccn(C2OC(CO)C(O)C2F)c(=O)n1 (stereo unspecified) | > 5000 µM | > 5000 µM | 810 µM and 773 µM | > 5000 µM | > 5000 µM | > 5000 µM | > 5000 µM | > 5000 µM | > 5000 µM | > 5000 µM | > 5000 µM | > 5000 µM | 19.5 µM | > 5000 µM | > 5000 µM | > 5000 µM | > 5000 µM | > 5000 µM | 2.98 µM | 
9 | Cc1c2cc[nH]c(=O)c2c(C)c2c1[nH]c1cc(OCCN3CCN(C)CC3)ccc12 | 0.946 µM | 5.09 µM | 0.418 µM | 1.84 µM | 0.452 µM | 1.96 µM | 0.813 µM | 8.97 µM | 1.23 µM | 6.81 µM | 0.953 µM | 6.66 µM | 0.946 µM | 11.2 µM | 1.63 µM | 5 µM | 0.782 µM | 15.2 µM | 0.456 µM | 5.51 µM
10 | COc1cccc2c1C(=O)c1c(O)c3c(c(O)c1C2=O)CC(O)(C(C)=O)CC3OC1CC(N)C(O)C(C)O1 (stereo unspecified) | 0.0177 µg/mL | 0.0836 µg/mL |  | 2.02 µg/mL |  | 1.85 µg/mL | 0.0208 µg/mL | 1.65 µg/mL | 0.0256 µg/mL | 0.138 µg/mL | 0.0151 µg/mL | 1.84 µg/mL | 0.0198 µg/mL | 2.11 µg/mL | 0.0159 µg/mL | 0.165 µg/mL | 0.0185 µg/mL | 0.216 µg/mL |  | 0.019 µg/mL
11 | Cc1ccc(NCCCN2CCN(CCCNc3ccc(C)c4sc5ccccc5c(=O)c34)CC2)c2c(=O)c3ccccc3sc12 |  | > 100 µM |  | > 100 µM |  | > 100 µM |  | > 100 µM |  | 57.1 µM |  | > 100 µM |  | > 100 µM |  | > 100 µM |  | > 100 µM |  | > 100 µM
12 | Cc1cc(C)nc(NC(N)=NCCc2ccccc2)n1 | 4.86 µM | > 100 µM | 3.43 µM | > 100 µM | 3.03 µM | 89 µM | 3.4 µM | > 100 µM | 2.08 µM | 9.75 µM | 3.15 µM | > 100 µM | 4.55 µM | > 100 µM | 6.45 µM | > 100 µM | 2.35 µM | 43.6 µM | 6.01 µM | > 100 µM
